Source: US20160074351A1, “DISPENSING SYSTEM” (HZNP Limited, priority 2012, published 2016)
Values belong to the molecule of their own block, whether it stands above or below them.

What was measured:
[1] = major diclofenac metabolite; cited from earlier work
rats [2] = assay: Fertility studies of dermally applied DMSO; assay type: in vivo
From the text: Studies conducted in rats found no effect of dermally applied DMSO on fertility, reproductive performance, or offspring performance.

rats [3] = assay: Ocular effects of dermal DMSO, indirect ophthalmoscopy, rats; assay type: in vivo; conditions: multiple-daily dermal application for 26 weeks
rhesus monkeys = conditions: daily oral or dermal treatment for 9 to 18 months; cited from earlier work
rabbits, dogs and pigs = conditions: dermal or oral administration; published studies; cited from earlier work
[4] = published studies; cited from earlier work
minipigs = assay: Ocular effects of dermal DMSO, indirect ophthalmoscopy, minipigs; assay type: in vivo; conditions: multiple-daily dermal application for 52 weeks
rabbits = conditions: doses up to 10 mg/kg/day (approximately […] the MRHD); cited from earlier work
male and female rats = conditions: doses up to 4 mg/kg/day (1.4-fold of the MRHD); cited from earlier work
mice [5] = conditions: dietary constituent for 2 years, doses up to 2 mg/kg/day; cited from earlier work
mice [6] = conditions: doses up to 20 mg/kg/day (0.6-fold the MRHD), maternal and fetal toxicity induced; cited from earlier work
hairless mice = conditions: topical application at doses up to 0.035%; cited from earlier work
rats [7] = conditions: dietary constituent for 2 years, doses up to 2 mg/kg/day; cited from earlier work
albino mice = conditions: daily topical applications for two years at concentrations up to 0.035%; cited from earlier work
rats [8] = conditions: doses up to 10 mg/kg/day (approximately 0.6-fold the MRHD); cited from earlier work
[9] = in vivo; cited from earlier work
[10] = oral diclofenac sodium; cited from earlier work
[11] = case report in the literature; cited from earlier work
[12] = system: patients with osteoarthritis; conditions: combination vs. oral diclofenac alone
rats [13] = conditions: cited from earlier work
[14] = bacterial reverse mutation, mouse lymphoma point mutation, CHO chromosomal aberration in vitro, in vivo rat bone marrow chromosomal aberration; cited from earlier work
patients = conditions: cited from earlier work

Compound: O=C(O)Cc1ccccc1Nc1c(Cl)cc(O)cc1Cl [4′-hydroxy-diclofenac]
pharmacologic activity [1]: very weak pharmacologic activity

fertility, reproductive performance, or offspring performance (rats [2]): no effect
Compound: C[S+](C)[O-] [DMSO, dimethyl sulfoxide]
ocular adverse effects by indirect ophthalmoscopy (rats [3]): No adverse effects were observed | ocular abnormalities (rhesus monkeys): no ocular abnormalities were observed | ocular findings by slit-lamp biomicroscopy (rabbits, dogs and pigs): refractive changes of lens curvature and cortical fibers indicative of myopic changes and/or incidences of lens opacity or discoloration | potential teratogenicity [4]: equivocal | ocular adverse effects by indirect ophthalmoscopy (minipigs): No adverse effects were observed

Compound: O=C([O-])Cc1ccccc1Nc1c(Cl)cccc1Cl.[Na+] [diclofenac sodium]
teratogenicity (rabbits): did not produce teratogenicity | fertility (male and female rats): did not affect fertility | tumor incidence (mice [5]): no significant increases in tumor incidence | teratogenicity (mice [6]): did not produce teratogenicity | time of onset of tumors (hairless mice): earlier median time of onset of tumors | tumor incidence (rats [7]): no significant increases in tumor incidence | neoplasm incidence (albino mice): did not increase neoplasm incidence | teratogenicity (rats [8]): did not produce teratogenicity

Compound: O=C(O)Cc1ccccc1Nc1c(Cl)cccc1Cl [diclofenac]
free unchanged diclofenac excreted in the urine [9]: Little or no | binding of diclofenac to protein when administered with aspirin [10]: reduced | clearance of free diclofenac when administered with aspirin [10]: not altered | detection in breast milk [11]: can be detected at low levels | abnormal creatinine [12]: 7% | abnormal hemoglobin [12]: 9% | abnormal urea [12]: 12% | rate of rectal hemorrhage [12]: less than 1% | effects of maternal exposure on labor and delivery (rats [13]): increased the incidence of dystocia, delayed parturition, and decreased offspring survival | mutagenicity / clastogenicity [14]: not mutagenic or clastogenic | patients with marked transaminase elevations whose abnormal tests occurred during the first 2 months of therapy (patients; all trials): 42 of the 51 patients | borderline (less than 3 times ULN) or greater elevations of transaminases, patients (patients; clinical trials of indications other than acute pain): about 15% | meaningful elevations of ALT and/or AST, patients (patients; open-label controlled trial, 3,700 patients treated for 2 to 6 months): about 4% | marked elevations (>8 times the ULN) of ALT and/or AST, patients (patients; open-label controlled trial, 3,700 patients): about 1% | incidence of borderline, moderate and marked elevations of ALT or AST compared to other NSAIDs (patients; open-label study): higher incidence
